Assay results as given in US20100056527A1, “BENZOFURAN COMPOUNDS USEFUL IN THE TREATMENT OF CONDITIONS MEDIATED BY THE ACTION OF PGE2 AT THE EP1 RECEPTOR” (Glaxo Group Limited, priority 2007, published 2010).

Molecular target: T1, human EP1 receptor (Homo sapiens, UniProt P34995)
T1 construct: expressed in transfected cells; host or cells: CHO-K1 cells (membrane fraction)
T1 sequence (P34995 1-402): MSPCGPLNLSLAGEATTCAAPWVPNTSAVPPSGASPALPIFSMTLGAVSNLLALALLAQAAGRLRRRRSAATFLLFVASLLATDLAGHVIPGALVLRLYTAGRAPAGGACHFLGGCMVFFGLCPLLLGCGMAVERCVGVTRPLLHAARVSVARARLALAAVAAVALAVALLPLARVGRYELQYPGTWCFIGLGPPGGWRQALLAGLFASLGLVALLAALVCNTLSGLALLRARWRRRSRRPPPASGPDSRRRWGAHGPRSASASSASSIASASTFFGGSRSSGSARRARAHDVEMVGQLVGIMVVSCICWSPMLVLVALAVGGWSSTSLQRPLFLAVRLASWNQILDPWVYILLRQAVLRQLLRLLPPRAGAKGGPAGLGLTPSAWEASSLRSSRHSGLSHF
Experiment: human EP1 calcium mobilization assay (FLIPR, PGE2-induced [Ca2+]i)
Format: cell-based
Details: CHO-K1 cells transfected with EP1 cDNA; antagonism of PGE2; averages of a number of experiments
Description: Briefly, the antagonist properties of compounds are assessed by their ability to inhibit the mobilization of intracellular calcium ([Ca^2+]i) in response to activation of EP1 or EP3 receptors by the natural agonist hormone prostaglandin E2 (PGE2). Increasing concentrations of antagonist reduce the amount of calcium that a given concentration of PGE2 can mobilize. The net effect is to displace the PGE2 concentration-effect curve to higher concentrations of PGE2. The amount of calcium produced is assessed using a calcium-sensitive fluorescent dye such as Fluo-4, AM and a suitable instrument such as a Fluorimetric Imaging Plate Reader (FLIPR). Increasing amounts of [Ca^2+]i produced by receptor activation increase the amount of fluorescence produced by the dye and give rise to an increasing signal. The signal may be detected using the FLIPR instrument and the data generated may be analyzed with suitable curve-fitting software.
The human EP1 or EP3 calcium mobilization assay (hereafter referred to as ‘the calcium assay’) utilises Chinese hamster ovary-K1 (CHO—K1) cells into which a stable (PClN; BioTechniques 20 (1996): 102-110) vector containing either EP1 or EP3 cDNA has previously been transfected. Cells are cultured in suitable flasks containing culture medium such as DMEM:F-12 supplemented with 10% v/v foetal calf serum, 2 mM L-glutamine, 0.25 mg/ml geneticin, 100 μM flurbiprofen and 10 μg/ml puromycin.
For assay, cells are harvested using a proprietary reagent that dislodges cells such as Versene. Cells are re-suspended in a suitable quantity of fresh culture media for introduction into a 384-well plate. Following incubation for 24 hours at 37° C. the culture media is replaced with a medium containing Fluo-4 and the detergent pluronic acid, and a further incubation takes place. Concentrations of compounds are then added to the plate in order to construct concentration-effect curves. This may be performed on the FLIPR in order to assess the agonist properties of the compounds. Concentrations of PGE2 are then added to the plate in order to assess the antagonist properties of the compounds.
The data so generated may be analyzed by means of a computerised curve-fitting routine. The concentration of compound that elicits a half-maximal inhibition of the calcium mobilization induced by PGE2 (pIC50) may then be estimated.
The compounds of Examples 1-28 and 30-156 were tested in the human EP1 calcium mobilization assay. The results are expressed as functional pKi values. A functional pKi is the negative logarithms of the antagonist dissociation constant as determined in the human EP1 calcium mobilization assay. The results given are averages of a number of experiments.

Row | Compound | functional pKi in the human EP1 calcium mobilization assay
1 | Cl.N#Cc1ccc(-c2cc3cc(Cl)cc(Cc4ccc(C(=O)NCC5CCNCC5)o4)c3o2)cc1 [Example 37, 5-{[5-Chloro-2-(4-cyanophenyl)-1-benzofuran-7-yl]methyl}-N-(4-piperidinylmethyl)-2-furancarboxamide hydrochloride] | did not show activity
2 | Cc1cc(C(=O)Nc2ccncc2)nn1Cc1cc(Cl)cc2cc(-c3ccccc3)oc12 [Example 68, 1-[(5-chloro-2-phenyl-1-benzofuran-7-yl)methyl]-5-methyl-N-4-pyridinyl-1H-pyrazole-3-carboxamide] | did not show activity
3 | Cc1cc(C(=O)NC(C)(C)C)nn1Cc1cc(Cl)cc2cc(-c3ccc(F)cc3F)oc12 [Example 112, 1-{[5-chloro-2-(2,4-difluorophenyl)-1-benzofuran-7-yl]methyl}-N-(1,1-dimethylethyl)-5-methyl-1H-pyrazole-3-carboxamide] | did not show activity
4 | CC(C)(C)OC(=O)Nc1ccc(Cc2cc(Cl)cc3cc(-c4ccccc4)oc23)o1 [Example 156, 1,1-Dimethylethyl {5-[(5-chloro-2-phenyl-1-benzofuran-7-yl)methyl]-2-furanyl}carbamate] | did not show activity
